Values quoted from earlier work, collected in US8728493B2, “Polymer based compositions and conjugates of non-steroidal anti-inflammatory drugs” (Nektar Therapeutics, priority 2005, dated 2014).

Conditions: non-conjugated drug; conditions not stated

O=C(c1ccccc1)c1ccc2n1CCC2C(=O)O (stereo not shown) [non-conjugated ketorolac, ketorolac]
half-life of non-conjugated ketorolac: approximately 2 hours
